Patent publication US12589143B2, “Human anti-PD-L1 peptide vaccines and methods of their use” (priority 2019, dated 2026)
Where no end group is shown, it is not given here.

Tested on: CT26 colon carcinoma cell line
Assay: CT26 WT tumor challenge in immunized Balb/c mice
Assay type: in vivo
Settings: for tumor inhibition versus PBS: Balb/c; for average tumor growth inhibition: day 14 and 16
From the text: FIGS. 5A, 5B, 5C, and 5D show the experimental scheme to test the immunization with PD-L1 in Balb/c mice. […] Balb/c mice 6-8 weeks old, were immunized with MVF-peptide immunogens emulsified in ISA 720 with nor-MDP three times and three weeks apart. Mice were immunized with MVF-PD-L1 vaccine constructs [PD-L1(36-53), PD-L1(50-67), PD-L1(95-112), PD-L1(130-147)] prior to tumor challenge. Blood was collected weekly and sera tested for antibody titers by ELISA. Two weeks after the third immunization (3Y), the mice were engrafted with CT26 WT tumor cells 10^5 per mouse Control mice were treated twice weekly with PBS as negative control and twice weekly with anti-mPD-L1 mAb (10F.9G2) as positive control starting 2 days after tumor challenge. Tumor growths were observed twice weekly and measured by calipers.
The peptide vaccines were dissolved in water and emulsified in Montanide ISA 720 (1:1) and 100 μg nor-MDP (N-acetylglucosamine-3yl-acetyl-1-alanyl-d-isoglutamine). Female Balb/c mice (Charles River Laboratories) at the age of 5 to 6 weeks were immunized three times at 3-week intervals with 100 μg peptide vaccine, and 15 days after the third immunization, the mice were challenged s.c. with CT-26 tumor cells (100,000 per mouse). Mice immunized with an irrelevant MVF peptide chimera were used as a negative control.
Mice treated twice a week with anti-mouse PD-L1 MAb (Bio X Cell, West Lebanon, NH) 200 ug/dose was used as a positive control. Tumor growth was monitored for up to 18 days after challenge. During immunization, blood was drawn biweekly and used in ELISA to monitor Ab titers. The mice were euthanized at the end of treatment and tumors extracted and weighed samples of the tumors were saved for further study and for histological examination. The spleens were also collected for further examination.
Two weeks after the third immunization (3Y), the mice were inoculated subcutaneously (s.c) with CT26 carcinoma cells (1×10^5 cells per mouse) and tumor formation was monitored on a daily basis afterwards. Mice treated with PBS served as negative control, and twice weekly treated mice with 200 μg/dose injections of anti-mouse PD-L1 monoclonal antibody (mAb clone 10F.9G2) served as positive control. Tumor growth was monitored daily and measured by caliper. […] PD-L1 B-cell epitope vaccines treatment had similar and significant reduction in tumor growth at day 16 post challenge as compared to negative control treatment with PBS (FIG. 9).
6-8 weeks old BALB/c mice (Charles River, Wilmington, MA) were used as standard animal models. Mouse CT26 colon carcinoma cell line was purchased from American Type Culture Collection Cells and were regularly cultured in RPMI1640 medium containing 10% FBS. CT26/HER2 cells were kindly provided by M. Penichet. Vaccines were dissolved in sterile water and emulsified in Montanide ISA 720 (1:1). Female Balb/c mice (Charles River Laboratories) at the age of 6-8 weeks were immunized three times at 3-week intervals with 100 μg of each peptide vaccine, and 2 weeks after the third immunization, the mice were challenged with CT26 and/or CT26/HER-2 tumor cells, which were implanted subcutaneously (s.c) on the right flank (1×10^5 per mouse). 200 μg of rat α-mouse PD-L1 mAb 10F.9G2 (Bio X Cell, West Lebanon, NH) were administered intraperitoneally (i.p.), twice weekly following tumor inoculation in the control group. Mice were monitored and scored for the formation of palpable tumors on a daily basis and sacrificed if tumors became necrotic or exceeded the predetermined size of 2,000 mm^3. Tumor volumes were measured in cubic millimeters with calipers and calculated with the following formula: A×B^2×0.5, where A is the largest diameter, and B is the widest point perpendicular to length. During immunization, blood was drawn weekly and used in ELISA to monitor antibody titers.
Tumor sizes were observed daily and measured by caliper. Tumor volumes were calculated by formula: Volume=(Length*Width*Width)/2. […]

Row | Sequence | tumor inhibition versus PBS | average tumor growth inhibition | levels of lesions | percentage of tumor growth inhibition compared to negative control | survival rate (Kaplan-Meier method)
1 | KLLSLIKGVIVHRLEGVEGPSLFVHGEEDLKVQHSSYRQR (KLLSLIKGVIVHRLEGVEGPSLFVHGEEDLKVQHSSYRQR-NH2) [PD-L1(50)] | significant inhibition of tumor growth | strongest average tumor growth inhibition |  |  | 
2 | KLLSLIKGVIVHRLEGVEGPSLLIVYWEMEDKNIIQFVHG (KLLSLIKGVIVHRLEGVEGPSLLIVYWEMEDKNIIQFVHG-NH2) [PD-L1(36)] |  | strongest average tumor growth inhibition |  |  | 
3 | KLLSLIKGVIVHRLEGVEGPSLVTSEHELTCQAEGYPKAE (KLLSLIKGVIVHRLEGVEGPSLVTSEHELTCQAEGYPKAE-NH2) [PD-L1(130)] | significant inhibition of tumor growth | strongest average tumor growth inhibition | lowest levels of lesions | Significant higher percentage of tumor growth inhibition | highest survival rate
